Assay results: US9963485B2, “Cycloheptapeptide agents for treatment of cancer and obesity diseases” (Hong Kong Baptist University, priority 2012, dated 2018)
Where two headings read alike, the source gives them in different places. *1 amine or outer side, *2 acyl side, *3 side chain or, on linkers, in order; H or OH if unused. Where a SMILES comes first, the peptide text is derived from it. [ ]: non-standard residue; d: D form. X3 = CC1C(C)C1C(N[*:1])C(=O)[*:2]; dGly(cPr) = N[C@@H](C(=O)O)C1CC1; Gly(cPr) = N[C@H](C(=O)O)C1CC1; NMeL = CN[CH](CC(C)C)C(=O)O; NMeA = CN[CH](C)C(=O)O; dNMeA = CN[C@H](C)C(=O)O

Tests used:
3T3-L1 murine adipocytes [1] = conditions: literature (Shimokawa et al. 2006); cited from earlier work
[2] = test system: oral epidermoid (KB) carcinoma cell line; assay: Cytotoxicity assay (sulforhodamine B), KB; type: cell-based, human; conditions: KB cells; for IC50: 72 hours, read-out: Cytotoxic activity IC50, KB
Description: (§4) Pure compounds are evaluated against the human cancer cell lines comprising our cytotoxicity screening panel. Cytotoxicity assays involving oral epidermoid (KB), colon (HCT116), prostate (LNCaP), breast (MCF7), Hela (cervical), leukemia (HL-60) melanoma (A375) and lung (A549) carcinoma cell lines, are performed using sulforhodamine B according to established protocols (Zhang et al., Journal of Medicinal Chemistry 2006; 49: 693-708; and Jutiviboonsuk A et al., Phytochemistry 2005; 66: 2745-2751.). KB and A375 cells are maintained in DMEM (Dulbecco's modified Eagle medium) medium. LNCaP and HL60 cells are maintained in RPMI1640 medium with hormone-free 10% heat-activated FBS (fetal bovine serum) supplemented with 0.1 nM testosterone. MCF7 and Hela cells are maintained and assayed in MEME (Minimum Essential Medium Eagle) medium containing 10 mg/L of insulin. HCT116 cells are maintained in McCoy's 5A medium supplemented with 10% fetal bovine serum. A549 cells are maintained in RPMI-1640 medium supplemented with 10% FCS. Serial dilutions of the compounds are prepared using 10% aqueous DMSO as solvent. The 190 μL cell suspension (3×10^4 cells in 1 ml media) is incubated with 10 μL sample solutions, in triplicate, in 96-well tissue culture plate at 37° C. in a humidified atmosphere of 5% CO2 in air for 72 hours. 10 μL 10% aqueous DMSO is used as control group. Then the cells are fixed to plastic substratum by the addition of 100 μL cold 20% aqueous trichloroacetic acid and washing with water after incubation at 4° C. for 30 min. After staining cells with 100 μL of 0.4% sulforhodamine B in 1% aqueous AcOH for 30 min, unbound dye is removed by rinsing with 1% aqueous AcOH. The bound dye is solubilized with 200 μL 10 mM unbuffered Tris base, pH 10, and the optical density is measured at 515 nm using an ELISA plate reader. The average data are expressed as a percentage, relative to the control. The IC50 values, the dose that inhibit cell growth by 50%, are calculated using nonlinear regression analysis (percent survival versus concentration).

[3] = test system: prostate (LNCaP) carcinoma cell line; assay: cells; type: cell-based, human; conditions: 72 hours, read-out: Cytotoxic activity IC50, LNCaP
Description: as §4

[4] = test system: lung (A549) carcinoma cell line; assay: cells; type: cell-based, human; conditions: for IC50: 72 hours, read-out: Cytotoxic activity IC50, A549; for IC90: read-out: Cytotoxic activity IC90, A549
Description: as §4

[5] = test system: breast (MCF7) carcinoma cell line; assay: cells; type: cell-based, human; conditions: for IC50: 72 hours, read-out: Cytotoxic activity IC50, MCF7; for IC90: read-out: Cytotoxic activity IC90, MCF7
Description: as §4

[6] = test system: lung cancer cell line (A549); assay: Hollow fiber in vivo test, A549; set-up: species or system mouse; conditions: 2.0 mg/kg
Description: (§1) Hollow fiber tests are well known in the art for providing preliminary indications of therapeutic efficacy (Mi et al. J. Nat. Prod. 2002, 65: 842-850). In hollow fiber tests, human tumor cell lines currently employed in cell cultures are grown inside semipermeable hollow fibers to form heterogeneous solid tumor models. […] By evaluating the test compound's inhibition of tumor cell growth versus the toxic response in the host, a preliminary estimate of therapeutic efficacy is provided in a cost- and time effective manner.

[7] = test system: colon cancer cell line (HCT116); assay: Hollow fiber in vivo test, HCT116; set-up: species or system mouse; conditions: 2.0 mg/kg
Description: as §1

[8] = test system: breast cancer cell line (MCF7); assay: Hollow fiber in vivo test, MCF7; set-up: species or system mouse; conditions: 2.0 mg/kg
Description: as §1

[9] = test system: melanoma cancer cell line (A375); assay: Hollow fiber in vivo test, A375; set-up: species or system mouse; conditions: 2.0 mg/kg
Description: as §1

[10] = test system: cervical cancer cell line (Hela); assay: Hollow fiber in vivo test, Hela; set-up: species or system mouse; conditions: 2.0 mg/kg
Description: as §1

HCT116-tumor xenograft = assay: HCT116 xenograft mouse model; type: in vivo; conditions: 5 mg/kg, every other day for 21 days
Description: The treatment started on the 6th day when the HCT116-tumor reached approximately 100 mm^3 (L×W×W). […] All mice died for the maytansine group after the initial two treatments at the dose of 0.1 mg/kg, indicating the highly toxicity of maytansine.

MCF7-tumor xenograft = assay: MCF7 xenograft mouse model; conditions: 5 mg/kg, twice a week for 3 weeks
Description: The treatment started on the 12th day when the MCF7-tumor size reached approximately 100 mm^3 (L×W×H). Two doses of MV-A (1.0 and 2.0 mg/kg), paclitaxel (5 mg/kg), and vehicle were administered via i.p. (intraperitoneal), i.v. (intravenous), or oral respectively, to the tumor-bearing mice twice a week for 3 weeks ([…]).
Antitumor animal study. All animal studies were approved and performed according to Animal Care and Use Guidelines of the Animal Ethics Committee at Hong Kong Baptist University and performed following Animal Care and Use guidelines set by NIH (National Institute of Health, USA). BALB/c nude mice, SPF class, male or female, 5-6 weeks old, were purchased from Charles River Laboratories. Before the experiment, it is one week of acclimatization to SPF class laboratory conditions. MV-A is tested for its anticancer activity against HCT116 and MCF7 cancer cells using a number of nude mice (Balc/nu/nu, female) in comparison of paclitaxel and maytansine. HCT116 or MCF7 cancer cells are subcutaneously implanted with 5×10^6 cells in the rear flank of each mouse. Female mice receiving MCF-7 cells are implanted with an s.c. pellet of 17β-estradiol (0.72 mg/pellet) a few days prior to injection to induce tumors. […] The mice are divided into 5 groups for HCT116 cancer cells: one high dose (1.0 mg/kg: 10 mice) group of MV-A, one low dose (0.5 mg/kg: 10 mice) group of MV-A, one dose (5.0 mg/kg: 10 mice) of paclitaxel, one dose of maytansine (0.1 mg/kg) and one dose of vehicle (negative control: 10 mice). The mice are then divided into 4 groups for MCF7 cancer cells: one high dose (2.0 mg/kg: 10 mice) group of MV-A, one low dose (1.0 mg/kg: 10 mice) group of MV-A, one dose (5.0 mg/kg: 10 mice) of paclitaxel, and one dose of vehicle (negative control: 10 mice). Every other day administration via i.p. (intraperitoneal), i.v. (intravenous), or oral, respectively are scheduled for 21 days for the HCT116 groups. Twice a week injections administered via i.p. (intraperitoneal), i.v. (intravenous), or oral, respectively are scheduled for […] for the MCF7 groups. Weights of mice and tumor diameters are measured twice a week until the end of the experiment. The tumor size in mm^3 was calculated by the formula: tumor size=length×width×height (L×W×H).

[11] = test system: colon (HCT116) carcinoma cell line; assay: Cytotoxicity assay (sulforhodamine B), HCT116; conditions: for IC50: read-out: Cytotoxic activity IC50, HCT116
Description: as §4

[12] = test system: murine P388 leukemia cells; conditions: at a concentration of 10 ng/mL
3T3-L1 murine adipocytes [13] = assay: 3T3-L1 fat accumulation (triglyceride) assay; type: cell-based; conditions: differentiated 3T3-L1 adipocytes, 7 days, read-out: Anti-obesity activity (fat accumulation) EC50
Description: (§2) MV-A, MV-B, MV-C and MV-D are evaluated for their anti-obesity effects in 3T3-L1 murine adipocytes. 3T3-L1 cells are cultured in the presence of insulin to induce adipocyte differentiation.
(§3) Pure compounds are evaluated against 3T3-L1 cell line for their potential anti-obesity activity. […] After the cells reach 100% confluence, the culture medium is changed to a differentiation DMEM medium containing 10% FCS, […], 0.5 mM 3-isobutyl-1-methylxanthine (IBMX), 90 U/mL penicillin, […] and 10 μg/mL insulin for induction of the adipocyte form of the 3T3-L1 cells. After 2 days, the differentiation medium is changed back to the normal DMEM medium and refreshed with the normal medium every 2 days. After incubation of additional 7 days, the cells are seeded in two sets of 96-well plates (about 10,000 cells per well). The test compounds in different concentrations are then added to the wells with 0.5% aqueous DMSO as control group. After incubation of 7 days, the differentiated 3T3-L1 adipocytes are treated with 2% Triton-X 100 ([…]) for 30 min at room temperature followed by sonication for 1 min. Fat accumulation is determined by measuring the liberated triglyceride using a Wato Triglyceride E-test Kit with the absorbance at 630/690 nm. The fat-accumulation rate is calculated as a percentage of the DMSO control. […] The cell viability of the differentiated 3T3-L1 adipocytes in another 96-well plate is treated with a Wako Cell Counting Kit-8 Test and measured with the absorbance at 450 nm. The cell viability is calculated as a percentage of the control.

3T3-L1 murine adipocytes [14] = assay: 3T3-L1 adipocyte cell viability; type: cell-based; conditions: differentiated 3T3-L1 adipocytes
Description: as §2, §3

[15] = test system: panel of cancer cell lines comprising KB, HCT116, LNCaP, A549, MCF7, HL60, Hela and A375; conditions: at 2 μM
[16] = test system: HIV (human immunodeficiency virus)
[17] = Body weight of mice after drug treatment; conditions: for Drop of average weight of mice after the first treatment: i.p. injection; for Drop of average weight of mice after six treatments: twice a week

## Ternatin
3T3-L1 murine adipocytes [1]
  Inhibition of fat accumulation against 3T3-L1 murine adipocytes: potent inhibitor of fat accumulation

## CC(=O)O[C@H]1C(=O)[C@@]2(C)[C@H]([C@H](OC(=O)c3ccccc3)[C@]3(O)C[C@H](OC(=O)[C@H](O)[C@@H](NC(=O)c4ccccc4)c4ccccc4)C(C)=C1C3(C)C)[C@]1(OC(C)=O)CO[C@@H]1C[C@@H]2O [Paclitaxel, reference compound]
[2]; Homo sapiens
  IC50: 3.38 nM
[2]
  Cytotoxic activity IC90, KB: >20 nM
[3]; Homo sapiens
  IC50: 15.9 nM
[4]; Homo sapiens
  IC50: 4.81 nM
  IC90: > 20 nM
[5]; Homo sapiens
  IC50: 3.24 nM
  IC90: > 30 nM
[6]; A549-IP
  Inhibition (%): 39.8%
[6]; A549-SC
  Inhibition (%): 0%
[7]; HCT116-IP
  Inhibition (%): 60.4%
[7]; HCT116-SC
  Inhibition (%): 0%
[8]; MCF7-IP
  Inhibition (%): 70.7%
[8]; MCF7-SC
  Inhibition (%): 0%
[9]; A375-IP
  Inhibition (%): 38.1%
[9]; A375-SC
  Inhibition (%): 7.8%
[10]; Hela-IP
  Inhibition (%): 69.5%
[10]; Hela-SC
  Inhibition (%): 11.1%
HCT116-tumor xenograft
  Inhibition of HCT116 tumor growth (excised tumor weights): 37.6%
MCF7-tumor xenograft
  Inhibition of MCF7 tumor growth (excised tumor weights): 28.2%
[11]; Homo sapiens, HCT-116, 72 h
  IC50: 5.78 nM
[11]; Homo sapiens, HCT-116, read-out: Cytotoxic activity IC90, HCT116
  IC90: > 20 nM

## CC(C)CC1NC(=O)C(C)N(C)C(=O)C(C)N(C)C(=O)C(C2C(C)C2C)NC(=O)C(CC(C)CO)N(C)C(=O)C(C)N(C)C(=O)C(C2C(C)C2C)NC1=O (centres unmarked) [Compound 2]
[2]
  Cytotoxic activity IC90, KB: 11.4 nM
  IC50: 0.79 nM
[4]
  IC50: 6.35 nM
  IC90: 6.84 nM
[5]
  IC50: 5.83 nM
  IC90: 9.21 nM
[12]
  Inhibition of cell growth of murine P388 leukemia cells: 100%
[11]; HCT116 cells, 72 hours
  IC50: 2.62 nM

## CC(C)C[C@H]1NC(=O)[C@@H](C)N(C)C(=O)[C@H](C)N(C)C(=O)[C@H](C2CC2)NC(=O)[C@H](CC(C)C)N(C)C(=O)[C@H](C)N(C)C(=O)[C@@H](C2CC2)NC1=O [MV-D] (cyclo([Gly(cPr)][NMeA][dNMeA][dL][dGly(cPr)][NMeA][NMeL]))
3T3-L1 murine adipocytes [13]
  EC50: 13.3 nM
3T3-L1 murine adipocytes [14]
  IC50: > 5000 nM
[15]
  Inhibition activity against the cancer cells: no inhibition activity
[16]
  IC50: 1240 nM

## CC(C)CC1NC(=O)C(C)N(C)C(=O)C(C)N(C)C(=O)C(C2C(C)C2C)NC(=O)C(CC(C)C)N(C)C(=O)C(C)N(C)C(=O)C(C2C(C)C2C)NC1=O (centres unmarked) [Compound 1] (cyclo([X3][NMeA][NMeA]L[X3][NMeA][NMeL]); configuration not given here)
[2]
  Cytotoxic activity IC90, KB: 1.65 nM
  IC50: 0.05 nM
[3]
  IC50: 0.42 nM
[4]
  IC50: 0.24 nM
  IC90: 1.02 nM
[5]
  IC50: 0.26 nM
  IC90: 1.47 nM
[12]
  Inhibition of cell growth of murine P388 leukemia cells: 100%
[17]; 1 mg/kg and 2 mg/kg
  Mortality during the treatments: No mice die
  Toxicity observed from dissection of the mice: No sign of toxicity
[17]; 1 mg/kg
  Drop of average weight of mice after the first treatment: 1.5 g
  Drop of average weight of mice after six treatments: 1.7 g
[17]; 2 mg/kg
  Drop of average weight of mice after the first treatment: 2.2 g
  Drop of average weight of mice after six treatments: 4.7 g
[11]; HCT116 cells, 72 hours
  IC50: 0.25 nM
[11]; read-out: Cytotoxic activity IC90, HCT116, HCT116 cells
  IC90: 0.69 nM
